Reference: patent publication US10167276B2, “Compounds and methods for inhibiting JAK” (Dizal (Jiangsu) Pharmaceutical Co., Ltd., priority 2015, dated 2019)

system: STAT3 phosphorylation in NCI-H1975 cells; assay: Cellular pSTAT3 assay in NCI-H1975 cells; assay type: cell-based; settings: Homo sapiens, 2 hours with compound
Experimental: NCI-H1975 cells were plated onto Costar #3701 96 or 384 well tissue-culture treated plates at 5,000 cells/well in 30 uL medium (RPMI, 10% FBS, supplemented with L-glutamine) and incubated overnight at 37° C. in 5% CO2. Phospho STAT3 signal was quantitated utilizing Cell Signaling Technology #7146B Pathscan […] STAT3 antibody pair kit, following manufacturer's instructions.
Cells were dosed with compound and incubated at 37° C. in 5% CO2 for 2 hours, after which medium and compound were aspirated and cells lysed with 35 uL cold 1×Cell Signaling Lysis buffer and chilled at 4° C. for 1-2 hours. Lysate was incubated on STAT3 capture plates at 4° C. overnight, washed 3× with Tris-Buffered Saline with 0.05% Tween® 20 (TBST), then […] STAT3 detection antibody was applied for 2 hours. Following washing with TBST (3×), HRP-secondary antibody was applied for 2 hours. After additional washing, signal was detected using TMB and Stop solution and read at 450 nm using Tecan Infinite M100.

Structure (SMILES) | IC50 [nM]
CC[C@H](C(=O)Nc1cccc2c(-c3nc(Nc4cn(C)nc4C)ncc3F)c[nH]c12)N1CCN(C)CC1 [Example 49, (2R)-N-(3-{2-[(1,3-dimethyl-1H-pyrazol-4-yl)amino]-5-fluoropyrimidin-4-yl}-1H-indol-7-yl)-2-(4-methylpiperazin-1-yl)butanamide] | 75.1
CCOc1nn(C)cc1Nc1ncc(F)c(-c2c[nH]c3c(NC(=O)[C@@H](C)N4CCN(C)C[C@H]4C)cccc23)n1 [Example 12, (2R)-2-[(2R)-2,4-dimethylpiperazin-1-yl]-N-(3-{2-[(3-ethoxy-1-methyl-1H-pyrazol-4-yl)amino]-5-fluoropyrimidin-4-yl}-1H-indol-7-yl)propanamide] | 246
CC[C@H](C(=O)Nc1cccc2c(-c3ccnc(Nc4cn(C)nc4OC)n3)c[nH]c12)N1CCN(C)CC1 [Example 47, (2R)-N-(3-{2-[(3-Methoxy-1-methyl-1H-pyrazol-4-yl)amino]pyrimidin-4-yl}-1H-indol-7-yl)-2-(4-methylpiperazin-1-yl)butanamide] | 136
COc1nn(C)cc1Nc1ncc(C)c(-c2c[nH]c3c(NC(=O)[C@@H](C)N4CCN(C)C[C@@H]4C)cccc23)n1 [Example 19, (2R)-2-[(2S)-2,4-dimethylpiperazin-1-yl]-N-(3-{2-[(3-methoxy-1-methyl-1H-pyrazol-4-yl)amino]-5-methylpyrimidin-4-yl}-1H-indol-7-yl)propanamide] | 470
COc1nn(C)cc1Nc1ncc(F)c(-c2c[nH]c3c(NC(=O)[C@@H](C)N4CCN(C)C[C@H]4C)cccc23)n1 [Example 6, (2R)-2-[(2R)-2,4-dimethylpiperazin-1-yl]-N-(3-{5-fluoro-2-[(3-methoxy-1-methyl-1H-pyrazol-4-yl)amino]pyrimidin-4-yl}-1H-indol-7-yl)propanamide] | 111
COc1nn(C)cc1Nc1ncc(C)c(-c2c[nH]c3c(NC(=O)[C@@H](C)N4CCN(C)[C@H](C)C4)cccc23)n1 [Example 18, (2R)-2-[(3R)-3,4-dimethylpiperazin-1-yl]-N-(3-{2-[(3-methoxy-1-methyl-1H-pyrazol-4-yl)amino]-5-methylpyrimidin-4-yl}-1H-indol-7-yl)propanamide] | 175
Cc1cnc(Nc2cn(C)nc2C)nc1-c1c[nH]c2c(NC(=O)[C@H](C)N3CCN(C)CC3)cccc12 [Example 42, (2S)-N-(3-{2-[(1,3-dimethyl-1H-pyrazol-4-yl)amino]-5-methylpyrimidin-4-yl}-1H-indol-7-yl)-2-(4-methylpiperazin-1-yl)propanamide] | 172
CCOc1nn(C)cc1Nc1ncc(F)c(-c2c[nH]c3c(NC(=O)[C@@H](C)N4CCN(C)[C@@H](C)C4)cccc23)n1 [Example 11a, (2R)-2-[(3S)-3,4-dimethylpiperazin-1-yl]-N-(3-{2-[(3-ethoxy-1-methyl-1H-pyrazol-4-yl)amino]-5-fluoropyrimidin-4-yl}-1H-indol-7-yl)propanamide] | 209
COc1nn(C)cc1Nc1nccc(-c2c[nH]c3c(NC(=O)[C@@H](C)N4CCN(C)[C@H](C)C4)cccc23)n1 [Example 30, (2R)-2-[(3R)-3,4-dimethylpiperazin-1-yl]-N-(3-{2-[(3-methoxy-1-methyl-1H-pyrazol-4-yl)amino]pyrimidin-4-yl}-1H-indol-7-yl)propanamide] | 359
CCOc1nn(C)cc1Nc1ncc(C)c(-c2c[nH]c3c(NC(=O)[C@@H](C)N4CCN(C)C[C@H]4C)cccc23)n1 [Example 23, (2R)-2-[(2R)-2,4-dimethylpiperazin-1-yl]-N-(3-{2-[(3-ethoxy-1-methyl-1H-pyrazol-4-yl)amino]-5-methylpyrimidin-4-yl}-1H-indol-7-yl)propanamide] | 410
COc1nn(C)cc1Nc1nccc(-c2c[nH]c3c(NC(=O)[C@@H](C)N4CCN(C)C[C@H]4C)cccc23)n1 [Example 29, (2R)-2-[(2R)-2,4-dimethylpiperazin-1-yl]-N-(3-{2-[(3-methoxy-1-methyl-1H-pyrazol-4-yl)amino]pyrimidin-4-yl}-1H-indol-7-yl)propanamide] | 227
COc1nn(C)cc1Nc1ncc(C)c(-c2c[nH]c3c(NC(=O)[C@@H](C)N4CCN(C)C[C@H]4C)cccc23)n1 [Example 38, (2R)-2-[(2R)-2,4-dimethylpiperazin-1-yl]-N-(3-{2-[(3-methoxy-1-methyl-1H-pyrazol-4-yl)amino]-5-methylpyrimidin-4-yl}-1H-indol-7-yl)propanamide] | 108
CC[C@H](C(=O)Nc1cccc2c(-c3nc(Nc4cn(C)nc4OC)ncc3C)c[nH]c12)N1CCN(C)CC1 [Example 44, (2R)-N-(3-{2-[(3-Methoxy-1-methyl-1H-pyrazol-4-yl)amino]-5-methylpyrimidin-4-yl}-1H-indol-7-yl)-2-(4-methylpiperazin-1-yl)butanamide] | 57.7
Cc1nn(C)cc1Nc1ncc(F)c(-c2c[nH]c3c(NC(=O)[C@@H](C)N4CCN(C)CC4)cccc23)n1 [Example 56, (2R)-N-(3-{2-[(1,3-dimethyl-1H-pyrazol-4-yl)amino]-5-fluoropyrimidin-4-yl}-1H-indol-7-yl)-2-(4-methylpiperaizn-1-yl)propanamide] | 126
CCOc1nn(C)cc1Nc1ncc(C)c(-c2c[nH]c3c(NC(=O)[C@@H](C)N4CCN(C)CC4)cccc23)n1 [Example 35, (2R)-N-(3-{2-[(3-ethoxy-1-methyl-1H-pyrazol-4-yl)amino]-5-methylpyrimidin-4-yl}-1H-indol-7-yl)-2-(4-methylpiperazin-1-yl)propanamide] | 153
CCOc1nn(C)cc1Nc1ncc(C)c(-c2c[nH]c3c(NC(=O)[C@@H](C)N4CCN(CCOC)CC4)cccc23)n1 [Example 21, (2R)-N-(3-{2-[(3-ethoxy-1-methyl-1H-pyrazol-4-yl)amino]-5-methylpyrimidin-4-yl}-1H-indol-7-yl)-2-[4-(2-methoxyethyl)piperazin-1-yl]propanamide] | 703
CCOc1nn(C)cc1Nc1ncc(C)c(-c2c[nH]c3c(NC(=O)[C@@H](CC)N4CCN(C)CC4)cccc23)n1 [Example 62, (2R)-N-(3-{2-[(3-ethoxy-1-methyl-1H-pyrazol-4-yl)amino]-5-methylpyrimidin-4-yl}-1H-indol-7-yl)-2-(4-methylpiperazin-1-yl)butanamide] | 104
CCn1cc(Nc2ncc(C)c(-c3c[nH]c4c(NC(=O)[C@@H](C)N5CCN(C)CC5)cccc34)n2)c(OC)n1 [Example 58, (2R)-N-(3-{2-[(1-ethyl-3-methoxy-1H-pyrazol-4-yl)amino]-5-methylpyrimidin-4-yl}-1H-indol-7-yl)-2-(4-methylpiperazin-1-yl)propanamide] | 106

Further lines, results first:

IC50 [nM] | Structure (SMILES)
548 | CC[C@@H](C(=O)Nc1cccc2c(-c3nc(Nc4cn(C)nc4OC)ncc3F)c[nH]c12)N1CCN(C)CC1 [Example 52, (2S)-N-(3-{5-fluoro-2-[(3-methoxy-1-methyl-1H-pyrazol-4-yl)amino]pyrimidin-4-yl}-1H-indol-7-yl)-2-(4-methylpiperaizn-1-yl)butanamide]
191 | CCOc1nn(C)cc1Nc1ncc(F)c(-c2c[nH]c3c(NC(=O)[C@@H](C)N4CCN(CC)CC4)cccc23)n1 [Example 8, (2R)-N-(3-{2[(3-ethoxy-1-methyl-1H-pyrazol-4-yl)amino]-5-fluoropyrimidin-4-yl}-1H-indol-7-yl)-2-(4-ethylpiperazin-1-yl)propanamide]
191 | CCOc1nn(C)cc1Nc1ncc(F)c(-c2c[nH]c3c(NC(=O)[C@@H](C)N4CCN(C)CC4)cccc23)n1 [Example 39, (2R)-N-(3-{2-[(3-ethoxy-1-methyl-1H-pyrazol-4-yl)amino]-5-fluoropyrimidin-4-yl}-1H-indol-7-yl)-2-(4-methylpiperazin-1-yl)propanamide]
184 | CCOc1nn(C)cc1Nc1ncc(C)c(-c2c[nH]c3c(NC(=O)[C@@H](C)N4CCN(CC)CC4)cccc23)n1 [Example 20, (2R)-N-(3-{2-[(3-ethoxy-1-methyl-1H-pyrazol-4-yl)amino]-5-methylpyrimidin-4-yl}-1H-indol-7-yl)-2-(4-ethylpiperazin-1-yl)propanamide]
115 | COc1nn(C)cc1Nc1ncc(F)c(-c2c[nH]c3c(NC(=O)[C@@H](C)N4CCN(C)CC4)cccc23)n1 [Example 25]
57.9 | COc1nn(C)cc1Nc1ncc(Cl)c(-c2c[nH]c3c(NC(=O)[C@@H](C)N4CCN(C)CC4)cccc23)n1 [Example 36, (2R)-N-(3-{5-chloro-2-[(3-methoxy-1-methyl-1H-pyrazol-4-yl)amino]pyrimidin-4-yl}-1H-indol-7-yl)-2-(4-methylpiperazin-1-yl)propanamide]
98.6 | CCN1CCN([C@H](C)C(=O)Nc2cccc3c(-c4nc(Nc5cn(C)nc5OC)ncc4F)c[nH]c23)CC1 [Example 4, (2R)-2-(4-ethylpiperazin-1-yl)-N-(3-{5-fluoro-2-[(3-methoxy-1-methyl-1H-pyrazol-4-yl)amino]pyrimidin-4-yl}-1H-indol-7-yl)propanamide]
111 | CC[C@H](C(=O)Nc1cccc2c(-c3nc(Nc4cn(C)nc4OC)ncc3F)c[nH]c12)N1CCN(C)CC1 [Example 51, (2R)-N-(3-{5-fluoro-2-[(3-methoxy-1-methyl-1H-pyrazol-4-yl)amino]pyrimidin-4-yl}-1H-indol-7-yl)-2-(4-methylpiperazin-1-yl)butanamide]
229 | COCCN1CCN([C@H](C)C(=O)Nc2cccc3c(-c4nc(Nc5cn(C)nc5OC)ncc4C)c[nH]c23)CC1 [Example 17, (2R)-2-[4-(2-methoxyethyl)piperazin-1-yl]-N-(3-{2-[(3-methoxy-1-methyl-1H-pyrazol-4-yl)amino]-5-methylpyrimidin-4-yl}-1H-indol-7-yl)propanamide]
